Activity calls are given as the source filed them.
Experiments:
[1] = viability of PTEN-deleted HCT116 cells – cell-based, HCT116 PTEN knockout, dose response (AID 1047); type: functional;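 note: HCT116 colon tumor cells with PTEN knocked out; cells exposed to compound for 60 hours before readout; potency for loss of cell viability measured by luminescence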
Paired box protein Pax-8 = Paired box protein Pax-8 (Homo sapiens, UniProt Q06710); experiment: PAX8 transcriptional activity inhibition in RMG-I – RMG-I cells, luciferase, cherry-pick, dose response (AID 687027); type: functional, cell-based;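 note: luciferase reporter driven by Pax8 target thyroperoxidase promoter measured by SteadyGlo luminescence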
HEK293 = experiment: NOD2 signaling inhibitors in MDP-stimulated cells, cell-based, uHTS, luminescence (AID 2001); type: functional; conditions: Homo sapiens
[2] = Luminescence Cell-Based Dose Retest to Confirm Inhibitors of Cancer Stem Cells. [Related pubchem assays (depositor defined):AID2717, AID2721]; type: functional; conditions: Homo sapiens
[3] = biological target: T1, Short transient receptor potential channel 4 (Mus musculus, UniProt Q9QUQ5); experiment: block of DAMGO-driven TRPC4 calcium entry – cell-based, HEK293 TRPC4/mu-opioid, Fluo-4 calcium, dose response (AID 434942); type: functional;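 note: potency of inhibitors blocking the TRPC4 calcium response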
T1 sequence (Q9QUQ5 whole entry): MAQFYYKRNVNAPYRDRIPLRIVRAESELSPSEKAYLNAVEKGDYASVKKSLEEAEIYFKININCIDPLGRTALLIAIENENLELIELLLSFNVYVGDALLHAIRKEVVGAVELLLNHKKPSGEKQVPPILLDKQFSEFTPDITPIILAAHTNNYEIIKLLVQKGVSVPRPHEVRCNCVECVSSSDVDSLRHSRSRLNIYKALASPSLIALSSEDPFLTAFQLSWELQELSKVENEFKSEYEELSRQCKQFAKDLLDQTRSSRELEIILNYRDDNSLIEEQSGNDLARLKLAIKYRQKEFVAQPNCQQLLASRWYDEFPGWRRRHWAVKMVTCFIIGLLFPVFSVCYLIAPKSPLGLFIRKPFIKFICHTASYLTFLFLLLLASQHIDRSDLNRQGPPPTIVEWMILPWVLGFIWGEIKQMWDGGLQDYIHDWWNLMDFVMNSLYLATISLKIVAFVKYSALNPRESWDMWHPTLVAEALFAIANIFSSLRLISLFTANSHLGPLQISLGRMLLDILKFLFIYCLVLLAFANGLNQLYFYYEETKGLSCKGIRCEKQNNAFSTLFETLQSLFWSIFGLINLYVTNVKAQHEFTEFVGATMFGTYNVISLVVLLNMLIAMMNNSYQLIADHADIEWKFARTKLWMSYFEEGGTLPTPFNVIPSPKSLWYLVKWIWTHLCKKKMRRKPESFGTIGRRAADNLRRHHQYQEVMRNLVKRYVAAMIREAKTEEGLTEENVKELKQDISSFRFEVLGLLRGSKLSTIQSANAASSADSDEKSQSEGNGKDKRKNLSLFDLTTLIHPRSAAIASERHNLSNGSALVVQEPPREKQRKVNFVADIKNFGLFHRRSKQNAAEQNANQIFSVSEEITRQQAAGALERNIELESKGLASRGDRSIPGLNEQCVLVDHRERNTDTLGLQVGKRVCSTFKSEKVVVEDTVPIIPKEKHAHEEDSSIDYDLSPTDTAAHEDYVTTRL

[4] = biological target: T2, Histone-lysine N-methyltransferase NSD2 (Homo sapiens, UniProt O96028); type: biochemical
T2 sequence (O96028 whole entry): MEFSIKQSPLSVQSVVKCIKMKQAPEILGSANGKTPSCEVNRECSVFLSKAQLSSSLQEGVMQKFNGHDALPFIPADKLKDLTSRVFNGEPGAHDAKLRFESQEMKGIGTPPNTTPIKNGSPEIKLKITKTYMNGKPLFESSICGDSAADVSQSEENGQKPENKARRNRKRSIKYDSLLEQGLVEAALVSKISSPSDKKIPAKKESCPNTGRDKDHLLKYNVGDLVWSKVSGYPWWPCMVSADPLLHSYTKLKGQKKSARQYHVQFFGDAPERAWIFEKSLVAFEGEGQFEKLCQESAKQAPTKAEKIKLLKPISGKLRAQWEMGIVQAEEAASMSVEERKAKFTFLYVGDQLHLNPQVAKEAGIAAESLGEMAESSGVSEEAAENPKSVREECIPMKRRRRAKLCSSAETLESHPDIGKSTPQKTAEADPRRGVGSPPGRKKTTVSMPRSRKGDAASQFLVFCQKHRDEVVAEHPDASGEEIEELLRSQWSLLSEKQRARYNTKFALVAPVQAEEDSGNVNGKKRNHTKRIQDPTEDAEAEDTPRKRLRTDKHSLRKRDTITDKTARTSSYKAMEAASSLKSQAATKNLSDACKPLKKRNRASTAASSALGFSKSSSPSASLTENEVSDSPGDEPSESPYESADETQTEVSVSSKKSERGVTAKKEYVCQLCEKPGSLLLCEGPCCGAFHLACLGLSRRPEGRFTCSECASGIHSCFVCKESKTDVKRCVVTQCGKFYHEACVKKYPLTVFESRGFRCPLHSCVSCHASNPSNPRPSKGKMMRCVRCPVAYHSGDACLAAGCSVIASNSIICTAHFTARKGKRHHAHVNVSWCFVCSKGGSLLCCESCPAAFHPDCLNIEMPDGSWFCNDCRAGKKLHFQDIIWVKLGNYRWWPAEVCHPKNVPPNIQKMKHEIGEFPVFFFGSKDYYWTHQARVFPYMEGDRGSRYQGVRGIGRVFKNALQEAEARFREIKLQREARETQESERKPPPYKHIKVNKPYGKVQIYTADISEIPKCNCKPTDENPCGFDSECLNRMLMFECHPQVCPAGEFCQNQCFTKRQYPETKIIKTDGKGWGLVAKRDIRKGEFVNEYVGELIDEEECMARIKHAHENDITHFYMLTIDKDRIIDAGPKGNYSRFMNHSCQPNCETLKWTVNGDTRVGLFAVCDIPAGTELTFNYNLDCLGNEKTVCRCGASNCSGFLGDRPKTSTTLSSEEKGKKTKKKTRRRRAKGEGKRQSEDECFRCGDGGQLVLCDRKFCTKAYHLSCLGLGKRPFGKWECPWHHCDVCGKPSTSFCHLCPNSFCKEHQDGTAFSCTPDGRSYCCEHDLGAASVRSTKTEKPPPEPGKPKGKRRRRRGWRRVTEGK

Chain of Paired box protein Pax-8 (Q06710 whole entry): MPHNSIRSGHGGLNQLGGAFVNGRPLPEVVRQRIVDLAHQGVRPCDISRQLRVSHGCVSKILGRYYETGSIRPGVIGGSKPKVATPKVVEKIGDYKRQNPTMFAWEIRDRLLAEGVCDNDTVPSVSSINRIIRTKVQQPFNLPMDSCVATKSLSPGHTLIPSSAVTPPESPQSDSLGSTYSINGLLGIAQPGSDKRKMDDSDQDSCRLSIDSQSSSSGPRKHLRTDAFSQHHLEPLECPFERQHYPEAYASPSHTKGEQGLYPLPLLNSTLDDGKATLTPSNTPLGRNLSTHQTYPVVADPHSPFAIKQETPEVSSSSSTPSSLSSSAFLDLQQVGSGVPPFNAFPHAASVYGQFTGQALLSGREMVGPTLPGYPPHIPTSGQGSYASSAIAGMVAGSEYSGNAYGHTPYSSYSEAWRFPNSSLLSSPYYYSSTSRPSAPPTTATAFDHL

For COc1ccc(CNC(=O)c2c(C)oc3c2C(=O)c2ccccc2C3=O)cc1, the EC50 [1] was 20.1 µM (active).

In the case of CCSc1nsc(NC(=O)Nc2cccc(F)c2)n1, the AC50 (Paired box protein Pax-8) is reported as 5.73 µM (active) and the IC50 (HEK293) is reported as 3.82 µM (inactive).

With O=[N+]([O-])c1ccc(/C=N/n2cnc3ccccc32)s1 the AC50 [2] was 3.84 µM (active).

In the case of CC(C)c1ccc(S(=O)(=O)/N=C2\C=C(NS(=O)(=O)c3ccccc3)C(=O)c3ccccc32)cc1, the EC50 [3] is reported as 7.5 µM (active) and the AC50 [4] is reported as 4 µM (active).
